Results taken from paper PMC12090178, “Exploring the Potential of Homologous Recombination Protein PALB2 in Synthetic Lethal Combinations” (ACS Chemical Biology, 2025).
“Also recorded” adds a separate entry of the source. Where no end group is shown, it is not given here.

How the values were obtained:
[1] = system: PALB2-IKZF3d; assay: IMiD-induced degradation of PALB2-IKZF3d (Western blot); assay type: cell-based; conditions: for degradation of PALB2 in IKZF3d knock-in cells: homozygous IKZF3d knock-in HEK293 cells, 24 h treatment
Protocol: 5.1 Degradation of PALB2 and UPP rescue assays
To show PALB2 deegradation, cells were treated with pomalidomide at the indicated concentrations for 24 h. The cells were subsequently lysed and prepared for gel electrophoresis and western blotting.
To show UPP rescue, MG132 and MLN4924 were used to inhibit the ubiquitination-proteasome degradation pathway. The cells were first treated with 1 μM MG132 or 1 μM MLN4924. After 6 h, pomalidomide was added to a final concentration of 10 μM. After 18 h, the cells were collected and lysed.
To show PALB2 recovery, the cells were first treated with 10 μM pomalidomide or 10 μM iberdomide for 24 h. After that, the culture medium was removed, the cells were washed three times with fresh culture medium and then cultured with culture medium without IMiDs.
The cells were then collected an d l yse d . […]
Figure S7. A). Degradation of endogenous PALB2.
B). PALB2 de gra dation rescue expe ri ment. The cells in the degradation rescue group w ere first t reated with 1 μ M MG132 and 1 μ M M LN49 24 for 6 hou rs and then t reated with 10 μ M pomalidomide for 1 8 hours. Cell samples were collected for WB analysis. The asterisk represents a nonspecific band of PALB 2 with t his antibody. […]

[2] = system: Rad51 foci; assay: Rad51 foci assay; assay type: cell-based; conditions: Pom 10 μM 24 h, then CPT 10 nM 12 h
Protocol: 50,000 cells (WT HEK293 or HEK293-PALB2^IKZF 3d/IKZF 3d) were seeded on coverslips and cultured with Pom (10 μM). After 24 h, CPT was added (10 nM). […] After removing the BSA-containing PBS, coverslips were incubated with primary antibody (Alexa Fluor 488 Anti-Rad51 antibody [EPR4030(3)] (Abcam, ab309674, RRID/AB_3675862), 1:500 in PBS) for 2 h and washed with PBS (3 times). Then, coverslips were mounted with antifade mountant with DAPI (Invitrogen) and fluorescence images were recorded by confocal microscopy (Leica Point Scanning Confocal SP8). Rad51 foci numbers in each cell were counted with Fiji ImageJ.
6 Homologous recombination assay
DR-GFP1 substrate (a gift from Maria Jasin, Addgene plasmid #26475; RRID:Addgene_26475) is flanked by human AAVS1 homology arms. Endogenous AAVS1 promoter drives T2A-hygromycin expression after integration. PX458-AAVS1 (#113194, Addgene) encodes sgRNA for human AAVS1 and expresses Cas9 nuclease. […]
(§1) After obtaining cells carrying the DR-GFP reporter, cells were maintained in medium with 10 µM pomalidomide for 24 hours. […] Four days after transfection, cells were resuspended in PBS and analyzed by flow cytometry using a BD LSR Fortessa. […]
(§2) primary antibody incubation, coverslips were washed 3 times with PBS. […] Fluorescence images were taken by confocal microscopy (LEICA POINT SCANNING CONFOCAL SP8). RAD51 f o ci numbers in each cell we re counted with Fiji ImageJ.

[3] = system: homologous recombination repair (DR-GFP reporter); assay: DR-GFP reporter assay of homologous recombination; assay type: cell-based
Protocol: DR-GFP plasmid[53] (a gift from Maria Jasin, Addgene plasmid #26475; RRID/Addgene_26475) was transfected into HEK293 cells with TurboFect (Thermo Scientific) at 70% confluency and selected with hygromycin (0.1 g/L, Invivogen) after 48 h. Transfected cells were moved to a 150 mm cell culture dish and cultured in DMEM medium with hygromycin (0.1 g/L). After obtaining cells carrying the DR-GFP reporter, the cells were treated with Pom for 24 h. Cells were then transfected with a modified pCBASceI[53] (a gift from Maria Jasin, Addgene plasmid #26477; RRID/Addgene_26477, I-SceI was expressed with P2A-mCherry to select for positively transfected cells) to introduce DSB at the I-SceI site in inserted DR-GFP plasmid. Four days after transfection, cells were resuspended in PBS and analyzed by flow cytometry.
6 Homologous recombination assay […]
as §1, §2

[4] = system: HEK293 PALB2 IKZF3d/IKZF3d knock-in cells; assay: Cell viability assay (WST-1); assay type: cell-based; conditions: 4 days (96 h), Pom 0, 5, 10 and 40 μM, WST-1
[5] = target: PALB2 C-terminal WD40 domain; conditions: previous structural work; read-out: binding affinity to PALB2; cited from earlier work
Protocol: Previous structural work on the PALB2 C-terminal WD40 domain identified a small fragment of BRCA2 (residues 21–39) with an approximately 600 nM binding affinity (600 nM) to PALB2 (see Figure 2A for structure).[16] […] Binding of the BRCA2(21–39) peptide using fluorescence polarization (FP) with fluorescein (FAM) indeed gave a value in close alignment with the previous report (Figure 2B).[16] Building from this observation we further characterized the binding of amino acids 1 ...

[6] = target: BRCA2 21-39 (Homo sapiens) (UniProt P51587); conditions: cited from earlier work
[7] = system: SmBiT-PALB2; assay: NanoBit protein-protein interaction assay in HEK293 cells; assay type: cell-based; conditions: BRCA2 peptide fused to LgBiT, HEK293, 24 h after transfection, signal normalized to empty vector
Protocol: The NanoBit CMV MCS BiBiT-Ready Vector (Promega) was modified to express PALB2 with a C-Terminal SmBit and the BRCA2 N-terminal peptide with a N-terminal LgBit. 5000 HEK293 cells were seeded in each well of a 96-well plate with a white bottom and grown for 24 h with cell medium (DMEM supplemented with 10% FCS at 37 °C with 5% CO2). The plasmid (100 ng) was transfected with FuGene HD (Promega, E5911) and incubated for 24 h. Then, Nano-Glo Live cell assay substrate (Promega) was added and the luminescence signal was recorded for 1000 ms. Signal was normalized to empty vector.
3 PALB2-BRCA2 interaction assays
0.5 million HEK293 cells were seeded per well in a 6-well plate. After 24 h, 2 μg of plasmid pCMV-FLAG-PALB2-IKZF3d or pCMV-FLAG-GFP-IKZF3d (control group) was transiently transfected with TurboFect (Thermo Scientific, e.g. R0531 or R0533) int o each well . After 36 h , the medium of at least 3 wells was removed. The cells were washed once with cold PBS on ice. […] The samples were analyzed by Western Blot. […]
NanoBiT CMV MCS BiBiT-Ready Vector (Promega) was used to construct a plasmid that can express LgBit fusion and SmBit fusion at the same time in cells. […] 24 hours after transfection, the luminescence signal of each well was obtained by adding Nano-Glo Live Cell Assay System (Promega) and the signal was read on a T e can S p ark 10M ( Tecan) for 1000 ms without temperature control.

[8] = target: T1, PALB2 C-terminal WD40 domain (UniProt Q86YC2 835-1186); assay: fluorescence polarisation; not told for these peptides whether direct (labelled peptide) or displacement (dark peptide at 10 μM added to the PALB2C dilution series with 10 nM fluorescent peptide; competitive binding model); 25 °C; conditions: both partners purified
T1 construct: PALB2 (partner and localizer of BRCA2), C-terminal WD40 beta-propeller domain; as I recall that construct spans about residues 835-1186; methods are in the Supporting Information; also called PALB2 C-terminal domain
T1 sequence: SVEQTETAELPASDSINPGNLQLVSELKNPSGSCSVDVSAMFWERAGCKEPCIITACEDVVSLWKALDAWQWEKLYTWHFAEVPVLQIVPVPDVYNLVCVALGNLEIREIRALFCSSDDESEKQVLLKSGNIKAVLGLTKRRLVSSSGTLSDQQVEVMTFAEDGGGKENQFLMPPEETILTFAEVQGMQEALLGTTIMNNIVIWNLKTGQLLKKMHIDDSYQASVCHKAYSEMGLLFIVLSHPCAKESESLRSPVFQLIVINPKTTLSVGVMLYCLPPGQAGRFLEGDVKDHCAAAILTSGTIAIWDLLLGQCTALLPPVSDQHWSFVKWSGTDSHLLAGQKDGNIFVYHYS

## Nc1cccc2c1C(=O)N(C1CCC(=O)NC1=O)C2=O (stereo not shown) [Pom, pomalidomide]
[1]; 10 μM IMiD for 24 h, then medium removed and cells washed, knock-in cells
  recovery of PALB2 levels after wash out: PALB2 levels recover after 24 h
[1]; HEK293, transient transfection, 10 μM pomalidomide, 24 h
  degradation of transiently expressed PALB2-IKZF3d fusion: occurred only with the C-terminal fusion; also recorded: shows degradation
[1]
  degradation of PALB2 in IKZF3d knock-in cells: significant degradation of PALB2
[1]; listed as pomalidomide
  degradation of PALB2 in IKZF3d knock-in cells: degrade most of the endogenous PA LB2
[2]; PALB2 IKZF3d/IKZF3d cells
  number of Rad51 foci formed in response to DSBs by camptothecin: significantly decrease
[2]; PALB2 wild-type cells
  compromised Rad51 foci formation: not observed
[3]; HEK293 wild-type cells, Pom vs DMSO control
  GFP-positive cells (DR-GFP): remained largely unchanged
[3]; PALB2 IKZF3d/IKZF3d cells, 10 μM Pom 24 h before I-SceI transfection, flow cytometry after 4 days
  GFP-positive cells (DR-GFP): notable decrease in GFP-positive cells
[4]
  viability of WT and KI cell lines with Pom alone: did not show strong differences

## BRCA2 (residues 21–39): small fragment of BRCA2 (residues 21-39) from previous structural work (fluorescein-GGKADLGPISLNWFEELSSEA)
[5]
  Kd: ~600 nM

## PALB2 WD40 (from UniProt Q86YC2)
[6]
  Kd: 600 nM

## W31R mutation of the BRCA(21–39) peptide: point mutated BRCA2 peptide (21-39, W31R) fused with LgBit; negative control (KADLGPISLNRFEELSSEA; also: fused with LgBiT)
[7]
  NanoBit interaction signal with PALB2: complete loss of the interaction signal

B1: BRCA(23–33) (peptide, UniProt P51587 23-33, looked up)
peptide: DLGPISLNWFE
notes: BRCA2 residues 23-33; Rink amide beads: probably a C-terminal amide (my surmise); also called absolute minimal peptide; source: synthetic peptide (SPPS, preparative HPLC)
[8]
  Kd: 8000 nM
